In US20260355196A1, “INHIBITORS AND DEGRADERS OF PIP4K PROTEIN” (Larkspur Biosciences, Inc., priority 2023, published 2026):

Target: T1, PIP4K2C (Homo sapiens, UniProt Q8TBX8)
T1 sequence (Q8TBX8 1-421): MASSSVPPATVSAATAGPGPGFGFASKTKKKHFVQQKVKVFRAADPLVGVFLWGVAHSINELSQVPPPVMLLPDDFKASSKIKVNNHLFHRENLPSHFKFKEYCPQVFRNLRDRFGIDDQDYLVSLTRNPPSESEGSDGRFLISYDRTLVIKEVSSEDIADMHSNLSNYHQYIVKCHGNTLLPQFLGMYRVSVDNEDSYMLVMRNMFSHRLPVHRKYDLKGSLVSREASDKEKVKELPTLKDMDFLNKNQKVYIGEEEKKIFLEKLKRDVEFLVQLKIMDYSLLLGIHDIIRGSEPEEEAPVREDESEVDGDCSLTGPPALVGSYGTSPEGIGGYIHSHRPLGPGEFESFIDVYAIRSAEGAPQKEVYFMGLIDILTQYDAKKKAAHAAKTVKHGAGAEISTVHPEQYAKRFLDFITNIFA
Experiment: HiBiT PIP4K2C degradation assay in MOLT-4 cells (endogenous PIP4K2C C-terminally tagged with HiBiT)
Format: cell-based
Design: untagged in primary human PBMCs and monocyte-derived dendritic cells
Conditions: 6 hours of incubation time, rather than 24 hours; MOLT-4, top concentration 10 micromolar; read-out: HiBIT-degradation MOLT4 PIP4k2C DC50 (6 hours, marked *)
Method in brief: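 MOLT-4 cells with endogenous PIP4K2C C-terminally HiBiT-tagged by CRISPR were treated with a 10-point, 3-fold dilution series from 10 micromolar, in duplicate, for 24 h or 6 h at 37 C. Remaining tagged protein read by HiBiT lytic luminescence; DC50 from Hill-equation fit.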

| DC50 | Compound |
| --- | --- |
| < 500 nM | O=C1CCC(Nc2ccc(N3CCC(CC4CCN(C(=O)[C@H]5CC[C@H](Nc6ncc(F)c(-c7cccc(-n8ccccc8=O)c7)n6)CC5)CC4)CC3)c(F)c2)C(=O)N1 (stereo partly drawn) [Compound 400, trans-3-((3-fluoro-4-(4-((1-(4-((5-fluoro-4-(3-(2-oxopyridin-1(2H)-yl)phenyl)pyrimidin-2-yl)amino)cyclohexane-1-carbonyl)piperidin-4-yl)methyl)piperidin-1-yl)phenyl)amino)piperidine-2,6-dione] |
| < 500 nM | O=C1CCC(Nc2ccc(N3CCC(N4CCC(NC(=O)[C@H]5CC[C@H](Nc6ncc(F)c(-c7cccc(N8CCOCC8=O)c7)n6)CC5)CC4)C(F)(F)C3)c(F)c2)C(=O)N1 (stereo partly drawn) [Compound 496, trans-N-(1′-(4-((2,6-dioxopiperidin-3-yl)amino)-2-fluorophenyl)-3′,3′-difluoro-[1,4′-bipiperidin]-4-yl)-4-((5-fluoro-4-(3-(3-oxomorpholino)phenyl)pyrimidin-2-yl)amino)cyclohexane-1-carboxamide] |
| < 500 nM | O=C1CCC(Nc2ccc(N3CCN(C[C@H]4CC[C@H](CC(=O)N[C@H]5CC[C@H](Nc6ncc(F)c(-c7cccc(N8CCCOC8=O)c7)n6)CC5)CC4)CC3)c(F)c2)C(=O)N1 (stereo partly drawn) [Compound 561, trans-2-((1r,4R)-4-((4-(4-((2,6-dioxopiperidin-3-yl)amino)-2-fluorophenyl)piperazin-1-yl)methyl)cyclohexyl)-N-((1r,4R)-4-((5-fluoro-4-(3-(2-oxo-1,3-oxazinan-3-yl)phenyl)pyrimidin-2-yl)amino)cyclohexyl)acetamide] |
| < 500 nM | O=C1CCC(Nc2ccc(C3CCN(CC4CCN(C(=O)N5CCC(Nc6ncc(F)c(-c7cccc(-n8ccccc8=O)c7)n6)CC5)CC4)CC3)c(F)c2)C(=O)N1 (centres unmarked) [Compound 465, 3-((3-fluoro-4-(1-((1-(4-((5-fluoro-4-(3-(2-oxopyridin-1 (2H)-yl)phenyl)pyrimidin-2-yl)amino)piperidine-1-carbonyl)piperidin-4-yl)methyl)piperidin-4-yl)phenyl)amino)piperidine-2,6-dione] |
| < 500 nM | O=C1CC[C@@H](Nc2ccc(C3CCN(CC4CCN(C(=O)[C@H]5CC[C@H](Nc6ncc(F)c(-c7cccc(-c8ccc[nH]c8=O)c7)n6)CC5)CC4)CC3)c(F)c2)C(=O)N1 (single isomer, unassigned) [Compound 421] |

Same assay, conditions: 24 hours incubation, MOLT-4, top concentration 10 micromolar; read-out: HiBIT-degradation MOLT4 PIP4k2C 24 hours DC50

| DC50 | Compound |
| --- | --- |
| < 500 nM | Cn1c(=O)n(C2CCC(=O)NC2=O)c2ccc(C3CCN(CCN4CCC(C(=O)N5CCC[C@H](Nc6ncc(Cl)c(-c7cccc(-c8ccccc8)c7)n6)C5)CC4)CC3)cc21 (stereo partly drawn) [Compound 44, 3-(5-(1-(2-(4-((S)-3-((4-([1,1′-biphenyl]-3-yl)-5-chloropyrimidin-2-yl)amino)piperidine-1-carbonyl)piperidin-1-yl)ethyl)piperidin-4-yl)-3-methyl-2-oxo-2,3-dihydro-1H-benzo[d]imidazol-1-yl)piperidine-2,6-dione] |
| 500 to 1000 nM | Cn1nc(C2CCC(=O)NC2=O)c2ccc(C3CCN(CC4CCN(CC(=O)N5CCC(Nc6ncc(Cl)c(-c7cccc(-c8ccc(F)cc8)c7)n6)CC5)CC4)CC3)cc21 (centres unmarked) [Compound 277, 3-(6-(1-((1-(2-(4-((5-chloro-4-(4′-fluoro-[1,1′-biphenyl]-3-yl)pyrimidin-2-yl)amino)piperidin-1-yl)-2-oxoethyl)piperidin-4-yl)methyl)piperidin-4-yl)-1-methyl-1H-indazol-3-yl)piperidine-2,6-dione] |
| < 500 nM | O=C1CCC(n2c(=O)oc3cc(C4CCN(CCC5CCN(C(=O)[C@H]6CC[C@H](Nc7ncc(F)c(-c8cccc(-n9ccccc9=O)c8)n7)CC6)CC5)CC4)ccc32)C(=O)N1 (stereo partly drawn) [Compound 321, trans-3-(6-(1-(2-(1-(4-((5-fluoro-4-(3-(2-oxopyridin-1(2H)-yl)phenyl)pyrimidin-2-yl)amino)cyclohexane-1-carbonyl)piperidin-4-yl)ethyl)piperidin-4-yl)-2-oxobenzo[d]oxazol-3 (2H)-yl)piperidine-2,6-dione] |
